Source: patent publication US11484032B2, “Compositions for inhibition of insect sensing” (Vanderbilt University, priority 2011, dated 2022)
Like-named read-outs stand apart in the source and are kept apart here.

How the values were obtained:
Orco (AgORco) = target: T1, Orco (AgORco) (Anopheles gambiae, UniProt Q7QCC7); experiment: Fluo-4 Ca2+ imaging, HEK293 cells expressing Orco alone; format: cell-based; conditions: for Emax: HEK293, read-out: Orco Agonist % value Of VUAA1; for EC50: read-out: Orco Agonist EC50
T1 construct: expressed in transfected cells
T1 sequence (Q7QCC7 1-478): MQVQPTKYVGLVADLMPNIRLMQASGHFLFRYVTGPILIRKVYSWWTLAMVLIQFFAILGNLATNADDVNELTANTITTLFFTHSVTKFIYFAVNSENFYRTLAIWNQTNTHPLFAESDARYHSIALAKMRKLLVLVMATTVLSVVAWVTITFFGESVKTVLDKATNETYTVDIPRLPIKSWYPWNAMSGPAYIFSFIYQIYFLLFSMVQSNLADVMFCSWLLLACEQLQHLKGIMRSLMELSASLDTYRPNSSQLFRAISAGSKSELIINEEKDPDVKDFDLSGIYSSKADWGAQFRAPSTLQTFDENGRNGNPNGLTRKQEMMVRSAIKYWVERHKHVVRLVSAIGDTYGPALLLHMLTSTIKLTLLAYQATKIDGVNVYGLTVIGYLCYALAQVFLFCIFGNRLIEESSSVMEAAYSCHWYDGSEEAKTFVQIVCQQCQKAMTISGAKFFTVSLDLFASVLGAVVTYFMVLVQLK
Text: (§1) For transient transfections, ORs were cloned into pCl (Promega) and transfected into Flp-In™ T-REx™293 cell lines (Invitrogen) with Fu GENE6 (Roche). For the creation of stable cell lines, a cell culture expression vector capable of expressing Orco in conjunction with a conventional OR, pcDNA5/FRT/TO (Invitrogen) was modified to create two individual expression cassettes each under the control of a separate CMV/Tet02 promoter and a BGH poly-adenylation signal. Cells (as above) were transfected with the modified pcDNA5 plasmid along with POG44 (a Flp recombinase expression plasmid) to facilitate site-specific recombination. Stable cell lines were selected using Hygromycin B (Invitrogen). Cells were maintained in DMEM (Invitrogen) supplemented with 10% Tetracycline-free FBS (HyClone) and 15 ng/ml Blasticidin. For fluorometric Ca2+ measurements, stable lines expressing ORs of interest were seeded at 20,000 cells/well in black wall, poly-lysine coated 384-well cell culture plates (Greiner) and treated with […] tetracycline (Sigma) overnight to induce OR expression. Cells were dye-loaded with 1.8 uM Fluo-4 AM (Molecular Probes), 2.5 mM Probenecid (Molecular Probes) in assay buffer (20 mM HEPES, IX HBSS) for 45 minutes at 37° C. in 5% CO2 prior to each assay. Ca^2+ mobilization was assayed in an FDSS6000 (Hamamatsu). Baseline readings were taken for 20 s before automated addition of compound previously diluted in DMSO and assay buffer. Ratios were described as Maximum/Minimum response and each response was normalized to the maximum responder.

AgORco+AgOR10 = target: T2, AgORco+AgOR10 (Anopheles gambiae, UniProt Q7QCC7); experiment: Fluo-4 Ca2+ imaging, HEK293 cells expressing Orco+AgOR10; format: cell-based; parameters: Orco 10 + Orco Angatonist % Reduction / Orco 10 + Orco Agonist % of control: concentration or dose not given beside the values; conditions: 10 + Orco; for Orco 10 + Orco Agonist, compared with VUAA1: agonist mode, qualitative, relative to VUAA1
T2 construct: expressed in transfected cells
T2 sequence (Q7QCC7 1-478): T1 sequence (Q7QCC7 1-478)
Text: as §1
As part of an ongoing, cell based calcium imaging screen for novel small-molecule modulators of AgORs that might disrupt olfactory-driven mosquito behaviors (Rinker et al manuscript in preparation), the inventors identified a number of compounds that activated AgOR10+AgORco-expressing human embryonic kidney (HEK293) cells. One of these compounds, (FIG. 3 A) denoted here as VUAA1, elicited activity consistent with allosteric agonism and was pursued for its novel properties. The identity of VUAA1 was verified using high-resolution mass spectrometry (HRMS) as well as ^1H and ^13C NMR. […] As AgORco was the common element among these functional responses, the inventors postulated that VUAA1 was a potential AgORco agonist.

AgORco+AgOR48 = target: T3, AgORco+AgOR48 (Anopheles gambiae, UniProt Q7QCC7); experiment: Ca2+ imaging, HEK cells expressing AgORco+AgOR48; format: cell-based; conditions: for Orco + 48 Agonist % value Of VUAA1: relative to VUAA1; for Orco + 48 Agonist EC50 (relative to VUAA1): stated in words relative to VUAA1; for Orco + 48 Agonist EC50 (given only relative to VUAA1): comparison with VUAA1 in words
T3 construct: expressed in transfected cells
T3 sequence (Q7QCC7 1-478): T1 sequence (Q7QCC7 1-478)
Text: as §1
The ability of VUAA1 and its analogs to agonize representative ORco proteins from dipteran (Anopheles gambiae, AgORco), lepidopteran (Heliothis virescens, HvORco) and hymenopteran (Harpegnathos saltator, HsORco) orders was tested. […] Furthermore, the hierarchy of VUAA series potency was the same, irrespective of whether AgORco was co-expressed with AgOR65 or AgOR48 tuning ORs (FIG. 45). Without wishing to be bound by a particular theory, odorant ligands are thought to activate the complex via interaction with the tuning ORx and thereby affect ORco/ORx channel properties. […] These findings indicate VUAA-class OR co-modulators are viable compounds for further development as broad-spectrum insect control strategies, and VUAA4 can provide an advance in the pharmacological profile of VUAA-based compounds.

AgOrco+AgOR65 = target: T4, AgOrco+AgOR65 (Anopheles gambiae, UniProt Q7QCC7); experiment: Ca2+ imaging, HEK cells expressing AgOrco+AgOR65; format: cell-based
T4 construct: expressed in transfected cells
T4 sequence (Q7QCC7 1-478): T1 sequence (Q7QCC7 1-478)
Text: as §1
For VUAA0, a single methyl from the para position of the aniline ring (compound VUAA0, FIG. 44) in the VUAA1 structure was removed. […] In VUAA0.5, unsaturation was introduced at the para position of the aniline ring (VUAA0.5, FIG. 44). […] In VUAA2, the ethyl group of the aniline ring in VUAA1 was replaced with an isopropyl group (VUAA2, FIG. 44).

[1] = system: An. gambiae early 4th instar larvae; experiment: Larval mosquito movement assay (Daniovision-Ethovision); format: in vivo, Anopheles gambiae
Protocol: Next, the agonist activity of the VUAA compound class was tested to establish the involvement of AgORs in mediating larval ortho and klinokinesis in response to a series of semiochemicals using larval-stage An. gambiae mosquitoes. Mosquito larvae are aquatic, thus compounds can be delivered to individual early 4th instar larvae regardless of volatility. The assay currently utilizes 6-well plates and the Daniovision-Ethovision platform (Noldus Inc.) to simultaneously record and analyze 6 larvae, thereby providing modest rates of throughput and a high degree of reproducibility. In these assays, larval movements are automatically quantified over 5-minute period and control larvae consistently move the same number of times in the presence or absence of 0.1% DMSO (p=0.80, n=31) (FIGS. 42-43). Furthermore, the effects of the widely-used synthetic insect repellent N, N-diethyl-meta-toluamide (DEET) was tested and DEET was also observed to increase larval movements at and above a threshold concentration of 5×10^−4M (p=0.013, n=27) (FIGS. 42-43).

[2] = Orco + 48, read-out: Orco + 48 Agonist EC50
[3] = Orco + 48, agonist, read-out: Orco + 48 Agonist EC50
[4] = heteromeric OR channels AgOrco+AgOR65, read-out: EC50

## CCc1ccc2c(c1)CCN2C(=O)CSc1nnc(-c2cccnc2)n1CC
Orco (AgORco)
  Emax: 121%
Orco (AgORco); Orco alone
  EC50: 35 µM
AgORco+AgOR10
  Orco 10 + Orco Agonist, compared with VUAA1: >VUAA1
AgORco+AgOR48; [2]
  EC50: 12.8 µM

## CCn1c(SCCC(=O)Nc2ccc(C(C)C)cc2)nnc1-c1cccnc1
AgORco+AgOR48; [2]
  EC50: 2.2 µM

## CCn1c(SCC(=O)Nc2ccc(C(C)C)cc2)nnc1-c1cncs1
AgORco+AgOR48; [3]
  EC50: 16.8 µM

## CCn1c(SCC(=O)Nc2ccc(C)cc2)nnc1-c1cccnc1 [VUAA0, 2-((4-ethyl-5-(pyridin-3-yl)-4H-1,2,4-triazol-3-yl)thio)-N-(p-tolyl)acetamide]
AgOrco+AgOR65; [4]
  EC50: 3400 µM
[1]; compared with DMSO controls or VUAA1
  larval behavioral (movement) response: lower

## C=CCc1ccc(O)c(OC)c1 [eugenol, reference compound]
AgOrco+AgOR65; [4]
  EC50: 0.5 µM

## CCn1c(SCC(=O)Nc2ccc(C(C)C)cc2)nnc1-c1ccn(C)n1
Orco (AgORco); Orco alone, agonist, relative to VUAA1
  Orco Agonist % value Of VUAA1: <VUAA1
Orco (AgORco); Orco alone, agonist, stated in words relative to VUAA1
  Orco Agonist EC50 (relative to VUAA1): <VUAA1

## C=Cc1ccc(NC(=O)CSc2nnc(-c3ccncc3)n2C2CC2)cc1
AgORco+AgOR48; Orco + 48, agonist
  Orco + 48 Agonist % value Of VUAA1: <VUAA1
  Orco + 48 Agonist EC50 (relative to VUAA1): <VUAA1

## CCn1c(SCC(=O)N2CCc3cc(Br)ccc32)nnc1-c1cccnc1
Orco (AgORco)
  Emax: 59%
Orco (AgORco); Orco alone
  EC50: 55 µM
AgORco+AgOR10
  Orco 10 + Orco Agonist, compared with VUAA1: >VUAA1
AgORco+AgOR10; antagonist mode
  Orco 10 + Orco Angatonist % Reduction: 59%

## CCc1ccc(NC(=O)CSc2nnc(-c3ccncc3)n2C2CC2)cc1
AgORco+AgOR48; [3]
  EC50: 13 µM

## CCCc1ccc(NC(=O)CSc2nnc(-c3ccncc3)n2CC)cc1
AgORco+AgOR48; Orco + 48
  Orco + 48 Agonist EC50 (given only relative to VUAA1): <VUAA1
  Orco + 48 Agonist % value Of VUAA1: <VUAA1

## CCn1c(SCC(=O)Nc2ccc(C)cc2)nnc1-c1cccnc1 [drawing 372]
Orco (AgORco); Orco alone
  EC50: 262 µM
AgOrco+AgOR65; Orco + 65, read-out: Orco + 65 Agonist EC50
  EC50: 335 µM
AgORco+AgOR48; [2]
  EC50: 996 µM

## O=C(CSc1nnc(-c2ccncc2)n1C1CC1)Nc1ccc(Br)cc1F
AgORco+AgOR48; Orco + 48, agonist
  Orco + 48 Agonist % value Of VUAA1: <VUAA1
  Orco + 48 Agonist EC50 (relative to VUAA1): <VUAA1

## CCCCCCC1CCCC(=O)O1 [D-undecalactone, reference compound]
AgORco+AgOR48; AgORco co-expressed with AgOR48, read-out: EC50
  EC50: 0.26 µM

## CCn1c(SCC(=O)Nc2ccc(Br)cc2F)nnc1-c1ccncc1
AgORco+AgOR48; Orco + 48
  Orco + 48 Agonist EC50 (given only relative to VUAA1): <VUAA1
  Orco + 48 Agonist % value Of VUAA1: <VUAA1

## CCN(CC)C(=O)c1cccc(C)c1 [DEET, N, N-diethyl-meta-toluamide, reference compound]
[1]; movements over 5-minute period
  threshold concentration for increased larval movement: 500 µM
